PMC11954145, “Antimicrobial and ADME properties of methoxylated, methylated and nitrated 2-hydroxynaphthalene-1 carboxanilides” (ADMET & DMPK, 2025)
Values after ≈ are worked out from the molar mass of the structure shown. Read-outs that look alike come from different tables or passages of the source.

Assays:
[1] = Lipophilicity determination by RP-HPLC (log k, log D); assay type: physicochemical; conditions: for log D6.5: RP-HPLC C18, MeOH 72 % / acetate-buffered saline pH 6.5; for log D7.4: RP-HPLC C18, MeOH 72 % / acetate-buffered saline pH 7.4; for log k (logarithm of the capacity factor): RP-HPLC C18, MeOH 72 % / water 28 %
Method in brief: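 Isocratic RP-HPLC on a C18 column at 40 °C, UV detection at 210 nm, dead time from KI. Log k used MeOH/H2O 72:28, log D used MeOH/acetate-buffered saline (pH 7.4 or 6.5) 72:28. k and D were calculated as (tR–tD)/tD, three replicates.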

S. aureus ATCC 29213 = assay: Antibacterial screening, broth microdilution MIC; assay type: cell-based; conditions: Staphylococcus aureus, ATCC29213; ATCC 29213, 24 h at 37 °C; read-out: MIC S. aureus
MRSA 63718 [2] = assay: Antibacterial screening, broth microdilution MIC; assay type: cell-based, methicillin-resistant S. aureus; conditions: Staphylococcus aureus, clinical isolate, 24 h at 37 °C, read-out: MIC MRSA 63718
MRSA SA 630 = assay: Antibacterial screening, broth microdilution MIC; assay type: cell-based, methicillin-resistant S. aureus; conditions: Staphylococcus aureus, clinical isolate, 24 h at 37 °C, read-out: MIC MRSA SA 630
MRSA SA 3202 = assay: Antibacterial screening, broth microdilution MIC; assay type: cell-based, methicillin-resistant S. aureus; conditions: Staphylococcus aureus, clinical isolate, 24 h at 37 °C, read-out: MIC MRSA SA 3202
[3] = test system: Enterococcus faecalis ATCC 29212; assay: Antibacterial screening, broth microdilution MIC; assay type: cell-based; conditions: ATCC29212, ATCC 29212, 24 h at 37 °C, read-out: MIC E. faecalis
VRE 342B = assay: Antibacterial screening, broth microdilution MIC; assay type: cell-based, vancomycin-resistant E. faecalis; conditions: Enterococcus, vanA isolate, 24 h at 37 °C, read-out: MIC VRE 342B
VRE 725B = assay: Antibacterial screening, broth microdilution MIC; assay type: cell-based, vancomycin-resistant E. faecalis; conditions: Enterococcus, vanA isolate, 24 h at 37 °C, read-out: MIC VRE 725B
VRE 368 = assay: Antibacterial screening, broth microdilution MIC; assay type: cell-based, vancomycin-resistant E. faecalis; conditions: Enterococcus, vanA isolate, 24 h at 37 °C, read-out: MIC VRE 368
E. coli ATCC 25922 = assay: Antibacterial screening, broth microdilution MIC; assay type: cell-based; conditions: Escherichia coli, ATCC25922; ATCC 25922, 24 h at 37 °C
[4] = test system: Mycobacterium tuberculosis ATCC 25177/H37Ra; assay: Antimycobacterial screening, broth dilution MIC (Alamar blue); assay type: cell-based; conditions: 336 h, H37Ra, 14 days at 37 °C, Alamar blue, read-out: MIC M. tuberculosis
Method in brief: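 Broth microdilution in Middlebrook 7H9 with ADC, compounds twofold from 256 to 0.125 μg mL^-1, 1.5×10^6 M. tuberculosis cells per well, 14 days at 37 °C. Alamar blue was then added for 24 h. MIC is the lowest concentration preventing blue resazurin turning pink resorufin; three repeats.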

[5] = test system: Mycobacterium kansasii DSM 44162; assay: Antimycobacterial screening, broth dilution MIC; assay type: cell-based; conditions: DSM44162, 336 h, read-out: MIC M. kansasii
[6] = test system: Mycobacterium smegmatis ATCC 700084; assay: Antimycobacterial screening, broth dilution MIC; assay type: cell-based; conditions: Mycolicibacterium smegmatis, ATCC700084, 72 h; ATCC 700084, 3 days at 37 °C; read-out: MIC M. smegmatis
[7] = test system: human monocytic leukemia THP-1 cells; conditions: cited from earlier work
[8] = test system: Mycobacterium kansasii DSM 44162; design: method as in PMID 23924993; conditions: previously published monosubstituted derivatives; cited from earlier work
MRSA 63718 [9] = test system: MRSA 63718; design: method as in PMID 25692135; conditions: cited from earlier work

SMILES	log D6.5 [1]	log D7.4 [1]	log k (logarithm of the capacity factor) [1]	MIC (S. aureus ATCC 29213)	MIC (MRSA 63718 [2])	MIC (MRSA SA 630)	MIC (MRSA SA 3202)	MIC [3]	MIC (VRE 342B)	MIC (VRE 725B)	MIC (VRE 368)	MIC (E. coli ATCC 25922)	MIC [4]	MIC [5]	MIC [6]	CC50 [7]	MIC M. kansasii [8]	MIC ([5]; DSM 44162, 14 days at 37 °C)	MIC of vancomycin (MRSA 63718 [9])
O=C(Nc1cccc([N+](=O)[O-])c1)c1c(O)ccc2ccccc12 [Compound 25, 2-hydroxy-N-(3-nitrophenyl)naphthalene-1-carboxamide]	0.3462	0.3058	0.4882	208 µM (≈ 64.1 µg/mL)	26 µM (≈ 8.02 µg/mL)	208 µM (≈ 64.1 µg/mL)	208 µM (≈ 64.1 µg/mL)	830 µM (≈ 256 µg/mL)	830 µM (≈ 256 µg/mL)	830 µM (≈ 256 µg/mL)	830 µM (≈ 256 µg/mL)	830 µM (≈ 256 µg/mL)	104 µM (≈ 32.1 µg/mL)	104 µM (≈ 32.1 µg/mL)	208 µM (≈ 64.1 µg/mL)	> 20 µM	–	–	–
O=C(Nc1ccc(C(F)(F)F)cc1)c1c(O)ccc2ccccc12 [2-hydroxy-N-(4-trifluoromethylphenyl)naphthalene-1-carboxamide]	–	–	–	–	–	–	–	–	–	–	–	–	–	–	–	–	23 µM (≈ 7.62 µg/mL)	–	–
O=C(Nc1ccccc1[N+](=O)[O-])c1c(O)ccc2ccccc12 [Compound 24, 2-hydroxy-N-(2-nitrophenyl)naphthalene-1-carboxamide]	0.3077	0.3103	0.3033	26 µM (≈ 8.02 µg/mL)	415 µM (≈ 128 µg/mL)	–	51.9 µM (≈ 16 µg/mL)	830 µM (≈ 256 µg/mL)	830 µM (≈ 256 µg/mL)	830 µM (≈ 256 µg/mL)	830 µM (≈ 256 µg/mL)	830 µM (≈ 256 µg/mL)	104 µM (≈ 32.1 µg/mL)	–	208 µM (≈ 64.1 µg/mL)	> 20 µM	–	51.9 µM (≈ 16 µg/mL)	–
O=C(Nc1ccc([N+](=O)[O-])cc1)c1c(O)ccc2ccccc12 [Compound 26, 2-hydroxy-N-(4-nitrophenyl)naphthalene-1-carboxamide]	0.0862	0.0879	0.0984	> 830 µM	830 µM (≈ 256 µg/mL)	415 µM (≈ 128 µg/mL)	–	415 µM (≈ 128 µg/mL)	830 µM (≈ 256 µg/mL)	830 µM (≈ 256 µg/mL)	830 µM (≈ 256 µg/mL)	830 µM (≈ 256 µg/mL)	104 µM (≈ 32.1 µg/mL)	–	208 µM (≈ 64.1 µg/mL)	2.5 ± 0.1 µM	–	415 µM (≈ 128 µg/mL)	–
CN[C@H](CC(C)C)C(=O)N[C@H]1C(=O)N[C@@H](CC(N)=O)C(=O)N[C@H]2C(=O)N[C@H]3C(=O)N[C@H](C(=O)N[C@H](C(=O)O)c4cc(O)cc(O)c4-c4cc3ccc4O)[C@H](O)c3ccc(c(Cl)c3)Oc3cc2cc(c3O[C@@H]2O[C@H](CO)[C@@H](O)[C@H](O)[C@H]2O[C@H]2C[C@](C)(N)[C@H](O)[C@H](C)O2)Oc2ccc(cc2Cl)[C@H]1O [vancomycin]	–	–	–	–	–	–	–	–	–	–	–	–	–	–	–	–	–	–	2 µg/mL
O=C(Nc1ccc(Br)cc1)c1c(O)ccc2ccccc12 [N-(4-bromophenyl)-2-hydroxynaphthalene-1-carboxamide]	–	–	–	–	–	–	–	–	–	–	–	–	–	–	–	–	93 µM (≈ 31.8 µg/mL)	–	–
